PubChem BioAssay AID248 (DTP/NCI, 2004)
Inconclusive results and toxic doses are left out. Cut-off read from the data, not from the text of the source: active = T/C of 150% or more; inactive = T/C below 125%.

Tested on: L1210 leukemia ip in BDF1 mice, survival T/C
Experiment: NCI In Vivo Anticancer Drug Screen. Data for tumor model L1210 Leukemia (intraperitoneal) in B6D2F1 (BDF1) mice
Conditions: endpoint: mean survival time, higher = longer survival
In short: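 Transplantable tumor model; survival measured in treated vs vehicle control mice. Value = treated/control.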

[1] = dose: 100.0 mg/kg/injection, schedule: Q04DX003 (ip), vehicle: saline with Tween-80
[2] = dose: 200.0 mg/kg/injection, schedule: Q04DX003 (ip), vehicle: saline with Tween-80
[3] = dose: 400.0 mg/kg/injection, schedule: Q04DX003 (ip), vehicle: saline with Tween-80
[4] = dose: 100.0 mg/kg/injection, schedule: Q01DX001 (ip), vehicle: carboxymethylcellulose (CMC)
[5] = dose: 200.0 mg/kg/injection, schedule: Q01DX001 (ip), vehicle: carboxymethylcellulose (CMC)
[6] = dose: 400.0 mg/kg/injection, schedule: Q01DX001 (ip), vehicle: carboxymethylcellulose (CMC)
[7] = dose: 100.0 mg/kg/injection, schedule: Q04DX003 (ip), vehicle: saline
[8] = dose: 200.0 mg/kg/injection, schedule: Q04DX003 (ip), vehicle: saline
[9] = dose: 400.0 mg/kg/injection, schedule: Q04DX003 (ip), vehicle: saline

Measured: T/C

Oc1c(Cl)cc(Cl)cc1C=Nc1ccc(Br)cn1
inactive: dose: 100.0 mg/kg/injection, schedule: Q01DX001 (ip), vehicle: other 95 % of control | dose: 200.0 mg/kg/injection, schedule: Q01DX001 (ip), vehicle: other 101 % of control | dose: 400.0 mg/kg/injection, schedule: Q01DX001 (ip), vehicle: other 95 % of control

CCNC(=O)OC1C=CS(=O)(=O)C1 (centres undefined)
inactive: dose: 100.0 mg/kg/injection, schedule: Q04DX002 (ip), vehicle: saline 106 % of control | dose: 200.0 mg/kg/injection, schedule: Q04DX002 (ip), vehicle: saline 92 % of control | dose: 400.0 mg/kg/injection, schedule: Q04DX002 (ip), vehicle: saline 106 % of control

O=C(N/N=C\c1ccc(Cl)c(Cl)c1)N/N=C/c1ccc(Cl)c(Cl)c1
inactive: dose: 50.0 mg/kg/injection, schedule: Q04DX003 (ip), vehicle: Klucel (hydroxypropylcellulose) (HPC) 92 % of control | dose: 100.0 mg/kg/injection, schedule: Q04DX003 (ip), vehicle: Klucel (hydroxypropylcellulose) (HPC) 87 % of control | dose: 200.0 mg/kg/injection, schedule: Q04DX003 (ip), vehicle: Klucel (hydroxypropylcellulose) (HPC) 92 % of control

Cc1ccc(NS(=O)(=O)c2ccc([N+](=O)[O-])cc2)cc1
inactive: [1] 103 % of control | [2] 89 % of control | [3] 89 % of control

O=C1C(Cl)=C(N2CC2)C(=O)C(Cl)=C1N1CC1
inactive: dose: 0.31 mg/kg/injection, schedule: Q01DX009 (ip), vehicle: alcohol 106 % of control | dose: 0.62 mg/kg/injection, schedule: Q01DX009 (ip), vehicle: alcohol 112 % of control | dose: 1.25 mg/kg/injection, schedule: Q01DX009 (ip), vehicle: alcohol 106 % of control | dose: 1.25 mg/kg/injection, schedule: Q01DX009 (ip), vehicle: saline 113 % of control | dose: 2.5 mg/kg/injection, schedule: Q01DX009 (ip), vehicle: alcohol 112 % of control | dose: 5.0 mg/kg/injection, schedule: Q01DX009 (ip), vehicle: alcohol 118 % of control | dose: 10.0 mg/kg/injection, schedule: Q01DX009 (ip), vehicle: saline 114 % of control

Cc1ccc(S(=O)(=O)OCC(c2ccccc2)C(F)(F)F)cc1 (centres undefined)
inactive: dose: 100.0 mg/kg/injection, schedule: Q01DX001 (ip), vehicle: saline with Tween-80 94 % of control | dose: 200.0 mg/kg/injection, schedule: Q01DX001 (ip), vehicle: saline with Tween-80 100 % of control | dose: 400.0 mg/kg/injection, schedule: Q01DX001 (ip), vehicle: saline with Tween-80 101 % of control

CNc1cn(C2OC(CO)C(O)C2O)c(=O)[nH]c1=O (centres undefined)
inactive: dose: 100.0 mg/kg/injection, schedule: Q01DX005 (ip), vehicle: saline 96 % of control | dose: 200.0 mg/kg/injection, schedule: Q01DX005 (ip), vehicle: saline 96 % of control

Cn1ncc2c(=O)[nH]nnc21
inactive: [4] 98 % of control | [5] 89 % of control | [6] 104 % of control

O/N=C\C[n+]1cc2ccccc2cc1/C=N\O
inactive: dose: 25.0 mg/kg/injection, schedule: Q01DX009 (ip), vehicle: saline 97 % of control | dose: 50.0 mg/kg/injection, schedule: Q01DX009 (ip), vehicle: saline 97 % of control | dose: 100.0 mg/kg/injection, schedule: Q01DX009 (ip), vehicle: saline 104 % of control | [7] 98 % of control

Cc1ccc(S(=O)(=O)OCC(O)C(O)C(O)C(O)C=O)cc1 (centres undefined) (tested in a mixture with another compound)
inactive: [1] 102 % of control | [2] 94 % of control | [3] 94 % of control

Cc1cccn(C(=O)c2ccccc2)c1=N
inactive: [4] 100 % of control | [5] 96 % of control | [6] 102 % of control

O=S1(=O)c2ccccc2NC(c2ccc(Cl)cc2)C1c1ccccc1 (centres undefined)
inactive: [7] 95 % of control | [8] 89 % of control | [9] 97 % of control

CCCCCCCCCCCCSC(SCCCCCCCCCCCC)c1ccc(OCC(=O)O)cc1
inactive: dose: 25.0 mg/kg/injection, schedule: Q04DX003 (ip), vehicle: saline 105 % of control | dose: 50.0 mg/kg/injection, schedule: Q04DX003 (ip), vehicle: saline 96 % of control | dose: 100.0 mg/kg/injection, schedule: Q01DX009 (ip), vehicle: Klucel (hydroxypropylcellulose) (HPC) 97 % of control | [7] 100 % of control | dose: 200.0 mg/kg/injection, schedule: Q01DX009 (ip), vehicle: Klucel (hydroxypropylcellulose) (HPC) 94 % of control | [8] 102 % of control | dose: 400.0 mg/kg/injection, schedule: Q01DX009 (ip), vehicle: Klucel (hydroxypropylcellulose) (HPC) 97 % of control | [9] 96 % of control

Nc1ncc2[nH]c(I)nc2n1
inactive: dose: 5.0 mg/kg/injection, schedule: Q01DX001 (ip), vehicle: saline 98 % of control
